Experimental data from ChEMBL document CHEMBL4732132, “Stereoselective synthesis of novel 2'-(S)-CCG-IV analogues as potent NMDA receptor agonists” (Eur J Med Chem, 2021).
Calls of active or inactive are those of the source. The calls are words filed in the database; no cut-off is given here.

What was measured:
[1] = Agonist activity at recombinant rat GluN1a/GluN2A receptor expressed in Xenopus laevis oocytes assessed as increase in glycine/glutamate-induced channel current at -40 mV holding potential by two-electrode voltage clamp method; type: cell-based, Oocyte
[2] = Agonist activity at recombinant rat GluN1a/GluN2B receptor expressed in Xenopus laevis oocytes assessed as increase in glycine/glutamate-induced channel current at -40 mV holding potential by two-electrode voltage clamp method; type: cell-based, Oocyte
[3] = Agonist activity at recombinant rat GluN1a/GluN2C receptor expressed in Xenopus laevis oocytes assessed as increase in glycine/glutamate-induced channel current at -40 mV holding potential by two-electrode voltage clamp method; type: cell-based, Oocyte
[4] = Agonist activity at recombinant rat GluN1a/GluN2D receptor expressed in Xenopus laevis oocytes assessed as increase in glycine/glutamate-induced channel current at -40 mV holding potential by two-electrode voltage clamp method; type: cell-based, Oocyte
[5] = test system: Oocyte; test: Agonist activity at recombinant rat GluN1a/GluN2A receptor expressed in Xenopus laevis oocytes assessed as increase in glycine/glutamate-induced channel current at -40 mV holding potential by two-electrode voltage clamp method relative to glutamate; type: cell-based
[6] = Agonist activity at recombinant rat GluN1a/GluN2B receptor expressed in Xenopus laevis oocytes assessed as increase in glycine/glutamate-induced channel current at -40 mV holding potential by two-electrode voltage clamp method relative to control; type: cell-based, Oocyte; conditions: for Emax: Rattus norvegicus, Oocyte, read-out: Efficacy
[7] = test system: Oocyte; test: Agonist activity at recombinant rat GluN1a/GluN2C receptor expressed in Xenopus laevis oocytes assessed as increase in glycine/glutamate-induced channel current at -40 mV holding potential by two-electrode voltage clamp method relative to control; type: cell-based
[8] = Agonist activity at recombinant rat GluN1a/GluN2D receptor expressed in Xenopus laevis oocytes assessed as increase in glycine/glutamate-induced channel current at -40 mV holding potential by two-electrode voltage clamp method relative to control; type: cell-based, Oocyte; conditions: for Emax: Rattus norvegicus, Oocyte, read-out: Efficacy
[9] = Rattus norvegicus, Oocyte, read-out: EC50

`CCCC[C@]1(C(=O)O)C[C@H]1[C@H](N)C(=O)O` showed an EC50 [1, 9] of 30000 nM, an EC50 [2, 9] of 10000 nM and an EC50 [3, 9] of 16000 nM. For the same compound, the EC50 [4, 9] was 3300 nM, the Efficacy ([5]; filed as agonist) was 65% and the Emax [6] was 107%. It also gave an Efficacy ([7]; filed as agonist) of 85% and an Emax [8] of 94%.

`N[C@H](C(=O)O)[C@@H]1C[C@]1(CS)C(=O)O` showed an EC50 [1, 9] of 4800 nM, an EC50 [2, 9] of 1000 nM and an EC50 [3, 9] of 2500 nM. For the same compound, the EC50 [4, 9] was 300 nM, the Efficacy ([5]; filed as agonist) was 87% and the Emax [6] was 103%. For the same compound, the Efficacy ([7]; filed as agonist) was 86% and the Emax [8] was 93%.

With `N[C@H](C(=O)O)[C@@H]1C[C@]1(CO)C(=O)O` the EC50 [1, 9] was 3000 nM, the EC50 [2, 9] was 1100 nM and the EC50 [3, 9] was 1900 nM. The EC50 [4, 9] was 400 nM, the Efficacy ([5]; filed as agonist) was 91% and the Emax [6] was 116%. For the same compound, the Efficacy ([7]; filed as agonist) was 98.2% and the Emax [8] was 104%.

For `[N-]=[N+]=NC[C@]1(C(=O)O)C[C@H]1[C@H](N)C(=O)O`, the EC50 [1, 9] was 4500 nM, the EC50 [2, 9] was 900 nM and the EC50 [3, 9] was 2700 nM. For the same compound, the EC50 [4, 9] was 400 nM, the Efficacy ([5]; filed as agonist) was 81.7% and the Emax [6] was 92.6%. It also gave an Efficacy ([7]; filed as agonist) of 62.7% and an Emax [8] of 76.9%.

In the case of `N[C@H](C(=O)O)[C@@H]1C[C@]1(COCc1ccccc1)C(=O)O`, the EC50 ([1]; oocyte) is reported as “Not Active”, the EC50 ([2]; oocyte) is reported as “Not Active” and the EC50 ([3]; oocyte) is reported as “Not Active”. For the same compound, the EC50 ([4]; oocyte) was “Not Active”, the Efficacy [5] was “inactive” and the Efficacy ([6]; rat, oocyte) was “Not Active”. The Efficacy [7] was “inactive” and the Efficacy ([8]; rat, oocyte) was “Not Active”.

With `C[C@]1(C(=O)O)C[C@H]1[C@H](N)C(=O)O` the EC50 [1, 9] was 260 nM, the EC50 [2, 9] was 80 nM and the EC50 [3, 9] was 110 nM. For the same compound, the EC50 [4, 9] was 30 nM, the Efficacy ([5]; filed as agonist) was 99% and the Emax [6] was 123%. For the same compound, the Efficacy ([7]; filed as agonist) was 90% and the Emax [8] was 111%.

For `C=CCOC[C@]1(C(=O)O)C[C@H]1[C@H](N)C(=O)O`, the EC50 [1, 9] was 3700 nM, the EC50 [2, 9] was 1500 nM and the EC50 [3, 9] was 2600 nM. For the same compound, the EC50 [4, 9] was 700 nM, the Efficacy ([5]; filed as agonist) was 73.9% and the Emax [6] was 111%. The Efficacy ([7]; filed as agonist) was 84.9% and the Emax [8] was 98.7%.
